The values below come from paper PMC9510126, “Hydrophobicity is a key determinant in the activity of arginine-rich cell penetrating peptides” (Scientific Reports, 2022).

For assay [1], the system named is MDA-MB-231 cells. Description: Delivery of TMR-k5 probe into live cells (nuclear staining). The class given is cell-based, human. To be noted: MDA-MB-231, d(X)TAT at various concentrations + TMR-k5 20 μM, 1 h, fluorescence microscopy, biological triplicates. From the text:
To test the relative delivery efficiency of the d(X)TAT peptides, the cell lines MDA-MB-231 (epithelial-like, human breast cancer, spindle-shaped) and Neuro-2a (mouse neuroblastoma with neuronal and amoeboid stem cell morphology) were chosen. These cell lines are routinely used in cancer research, neuroscience, and toxicology. In the context of this study, we rationalized that the distinct differences in origin and characteristics between MDA-MB-231 and Neuro-2a properties may be useful to assess the generality of the results obtained. MDA-MB-231 or Neuro-2a cells were incubated with d(X)TAT peptides at various concentrations and TMR-k5 (20 μM) for 1 h. Cells were then washed, incubated with the DNA stain Hoechst and the live/dead marker SYTOX green (or SYTOX blue), and imaged by fluorescence microscopy. The localization of TMR-k5 in individual nuclei was then assessed by measuring the overlap between TMR and Hoechst signals (Fig. 2, Figure S13). […] This is because, in our experience, dfTAT and dfTAT analogs display a threshold behavior where, below a certain endosomal concentration, endosomal leakage is not achieved. In contrast above this threshold most late endosomes are permeabilized. […] Our rationale was therefore to titrate cells with different concentrations of d(X)TAT agents, monitor how many cells display cytosolic/nuclear delivery of TMR-k5, and compare the different d(X)TAT peptides.
MDA-MB-231 and Neuro2a cells obtained from ATCC (breast cancer-derived epithelial) were cultured in humidified atmosphere at 5% CO2 and 37 °C. Cells were seeded in plastic 48-well plates (Fisher) for quantitative analysis or 8-well Labtek II plates (Fisher) for qualitative imaging at 100× magnification. The cells were grown to 80–90% confluency in a 37 °C humidified atmosphere containing 5% CO2. Cells were washed three times with Leibovitz’s L15 media (L15) (Fisher). Cells were then incubated with peptide and 20 µM of the TMR-k5 pentalysine probe at 37 °C for 1 h. This was followed by washing the cells three times with L15 supplemented with heparin (Sigma-Aldrich) (1 mg/mL) and an extra L15 wash. […] Additionally, the cell permeable dye Hoechst 33342 (Thermo Fisher Scientific o) was used for nuclear staining. Cells were imaged using an EVOS FL Auto 2 inverted microscope (Thermo Fisher Scientific). The microscope is equipped with a heating chamber maintained at 37 °C. Images were acquired using bright field imaging and five fluorescence filter sets: CFP (Ex = 436 ± 10 nm, Em = 480 ± 20 nm), RFP (Ex = 560 ± 20 nm, Em = 630 ± 35 nm), FITC (Ex = 488 ± 10 nm Em = 520 ± 20 nm), DAPI (Ex = 350 ± 50 nm, Em = 460 ± 25 nm), […]. For image viewing and processing individual images, the Celleste 4.0 software (Thermo Fisher Scientific) was used. Nuclear regions in 20× images where identified using Hoechst staining (the quantification process is described in Figure S13). The intensity of these objects in the TMR channel was then determined using the Celleste software. Cells stained by the SYTOX or DRAQ dyes were considered dead and not counted as positive for delivery. Cells displaying a nuclear TMR-k5 fluorescence above the fluorescence threshold determined for TMR-k5 alone were considered positive for delivery (if excluding SYTOX or DRAQ7 stain, and if visually showing stained nucleoli for confirmation of intracellular localization). The percentage of cells positive for TMR-k5 nuclear staining was then calculated, using Hoechst-stained cells to count the total number of cells present. […] Instead, this assay quantifies the number of cells in which the nuclear fluorescence of TMR-k5 is above a detection threshold. This threshold is dependent on the microscope, imaging conditions, and the concentration of TMR-k5 used during incubation (Figure S13). The reproducibility of all the experiments was assessed by performing experiments with independent batches of cell cultures on three different days (i.e., biological triplicates). […]

The subject of assay [2] is MDA-MB-231 cells. Description: Staining of endosomes with LysoTracker (puncta per cell). It counts as cell-based, human. Conditions: MDA-MB-231, 1 h with peptide (X = K(Ac), WW, FFLIP at 10, 1.5, 1.5 μM), LysoTracker Green DND-26 500 nM 5 min, biological triplicates. The procedure:
Given that hydrophobicity of the d(X)TAT peptides appears to contribute to their membrane permeation activities, we next sought to establish whether this relationship could be recapitulated with membrane models, i.e. lipid bilayers. To establish which membrane system to test, we first aimed to test whether d(X)TAT peptides generally recapitulate the mechanism of cell entry previously determined with dfTAT. For this purpose, the delivery of TMR-k5 was performed in cells transfected with dominant-negative (DN) rab7(T22N), a protein that disrupts trafficking from early endosomes to late endosomes[29],[30]. For these experiments, d(WW)TAT and d(FFLIP)TAT were chosen as two “high activity/hydrophobicity” d(X)TAT representatives. […] In this case, approximately 5% of cells remained positive for TMR-k5 nuclear staining. […] To further probe the cell penetration mechanism, the number of endosomal organelles stained by Lysotracker in cells before and after delivery was quantified. The rationale behind this assay is that lysotracker accumulates in acidified organelles, typically late endosomes and lysosomes, that endosomal membrane leakage causes an increase of endosomal pH (presumably via leakage of luminal H^+ into the cytosol), and that, consequently, endosomes rendered potentially leaky by d(X)TAT peptides will not be stained by lysotracker.
For the quantification of acidic vesicles, cells were treated with LysoTracker Green DND-26 (500 nM) for 5 min. Alternatively, cells were pretreated with L-Leu-L-Leu methyl ester (LLOME; Sigma-Aldrich) incubated at 1 mM for 10 min, or bafilomycin (Sigma-Aldrich) at 1 µM for 4 h, and then stained with LysoTracker. Likewise, cells were pretreated with d(X)TAT peptides (X = K(Ac), WW, or FFLIP at 10, 1.5, and 1.5 μM) for 1 h. Cells were then washed an stained with LysoTracker immediately or after 12 h incubation in DMEM. For all conditions, fluorescence microscopy images were acquired using the 100× objective on an Olympus IX-81 microscope. ImageJ was used to calculate the number of LysoTracker-stained puncta per cell, as well as the area of each individual puncta. This analysis was performed for 50 cells imaged for each condition and reproduced in biological triplicates.

Entries after “also recorded” stand apart in the source; their conditions may differ. Ends that are not written are not given here.

On to “d(K(Ac))TAT: disulfide dimer of CXRKKRRQRRRG with X = lysine conjugated to an acetyl group (CK(Ac)RKKRRQRRRG-NH2; also: disulfide dimer)”, for which the “TMR-k5 delivery activity (cells with TMR-k5 nuclear staining)” value with MDA-MB-231 cells [1] is listed as “little to no TMR-k5 delivery is detected; also recorded: no detectable delivery activity; also recorded: does not have a delivery activity detectable”. Also, the “lysotracker stained endosomes (puncta per cell) immediately after incubation” value in the assay on MDA-MB-231 cells [2] is “did not affect lysotracker staining”.
